Where a name gives a salt, the structure may show the parent alone.

For assay [1], the target named is T1, PAR1 (Homo sapiens (Human), UniProt P25116). Description: Inhibition of PAR1-mediated platelet aggregation induced by TRAP. The class given is cell-based. The conditions noted are these: TRAP-induced aggregation of washed platelets from healthy volunteer donors, 96-well format. The protocol:
PAR1 Determination Method: Inhibition of PAR1-Mediated Platelet Aggregation The pharmacological testing of the substances took place in platelet aggregation induced by TRAP (thrombin receptor-activating peptide) in 96-well format. For this purpose, blood was taken from healthy volunteer donors in 20 ml syringes containing 2 ml of 3.13% sodium citrate solution. After centrifugation at 150×g for 20 minutes, the platelet-rich plasma (PRP) was separated off and mixed with 1 μl of PGE1 solution (500 μg/ml in ethanol)/ml of PRP. Incubation at RT for 5 minutes was followed by centrifugation at 120×g for 15 minutes to remove the leukocytes. The leukocyte-free PRP was transferred in 5 ml portions into 15 ml PP tubes and centrifuged at 360×g for 15 minutes in order to pellet the platelets. The plasma was then decanted off and the platelet sediment from 5 ml of PRP was resuspended in 1 ml of Tyrode's (120 mM NaCl, 2.6 mM KCl, 12 mM NaHCO3, 0.39 mM NaH2PO4×H2O, 10 mM HEPES, 0.35% BSA, 5.5 mM glucose, pH 7.4) and adjusted with Tyrode's to a platelet count of 3×10^5/microliter (4). 13 ml of this cell suspension were then mixed with 866 μL of 10 mM CaCl2 solution, and 120 μL thereof were pipetted into each well of a 96-well plate containing 15 μL of the substance to be tested. After incubation at RT in the dark for 30 minutes, 15 μL of a TRAP solution (70-100 μM) were added as agonist, and kinetics were recorded at 650 nm in a SpectraMax 340 at 37° C. for 20 minutes while shaking. The areas under the curves of negative control (Tyrode's/DMSO) and positive control (15 μl of agonist/DMSO) were calculated and the difference was fixed as the 100% value. The substances to be tested were pipetted as serial dilutions in duplicate determination, the AUC was likewise determined for each substance concentration, and the % inhibition of the AUC compared with the control was calculated. On the basis of the % inhibition, the IC50 was calculated by nonlinear regression analysis according to the 4-parameter equation.

Assay [2] has as its target T1, PAR1. Description: PAR1 binding test (radioligand displacement, membrane preparation). The conditions noted are these: human PAR1 expressed in High Five insect cell membranes; radioligand 20 nM; read-out: Inhibition of binding IC50. The protocol: The synthesized substances were examined in a PAR1 binding test. This tested whether the substances can inhibit the binding of a radioactively labeled PAR1 agonist known from the literature at the PAR1 receptor (Ho-Sam Ahn, Mol Pharm, 51:350-356, 1997).
The human PAR1 receptor was expressed transiently in High Five insect cells. From these cells, after 48 hours, a membrane preparation was produced by standard methods, aliquoted into 10 mM Tris-HCl; 0.3 mM EDTA; 1 mM EGTA; 250 mM sucrose pH 7.5, and stored at −80° C.
The substances were preincubated with the membrane at RT for 15 minutes, then the radioligand (ALA-(para-F-Phe)-Arg-ChA-homoArg-(3,4-^3H-Tyr)-NH2; approx. 40 Ci/mMol) was added. The end concentration of the radioligand in the test buffer (50 mM Tris-HCl; 10 mM MgCl2; 1 mM EGTA; 0.1% BSA; 2% DMSO) was 20 nM, that of the membrane 1 mg/ml. After an incubation time of 60 minutes, 25 μL of the mixture were transferred to a 96-well MultiScreenHTS FB microtiter filtration plate (from Millipore), which had been pretreated beforehand with a 0.75% aqueous polyethyleneimine solution for 5 hours at RT. Thereafter, with vacuum extraction, each well was washed four times with 300 μL of buffer (50 mM Tris-HCl; 10 mM MgCl2; 1 mM EGTA). The plate was then dried overnight, 100 μl of scintillator per well were added, and the plate was analyzed after 6 hours in a Wallac MicroBeta (from PerkinElmer) liquid scintillation counter. The nonspecific binding was determined in the presence of 100 μM SCH79797 (PAR-1 antagonist; from Tocris, Cat. No. 1592) and subtracted from all measurements. The 100% value used was a control without inhibitor. The % inhibition values of a substance dilution series were used to calculate the IC50 with the aid of nonlinear regression analysis according to the 4-parameter equation.

T1 sequence (P25116 22-425): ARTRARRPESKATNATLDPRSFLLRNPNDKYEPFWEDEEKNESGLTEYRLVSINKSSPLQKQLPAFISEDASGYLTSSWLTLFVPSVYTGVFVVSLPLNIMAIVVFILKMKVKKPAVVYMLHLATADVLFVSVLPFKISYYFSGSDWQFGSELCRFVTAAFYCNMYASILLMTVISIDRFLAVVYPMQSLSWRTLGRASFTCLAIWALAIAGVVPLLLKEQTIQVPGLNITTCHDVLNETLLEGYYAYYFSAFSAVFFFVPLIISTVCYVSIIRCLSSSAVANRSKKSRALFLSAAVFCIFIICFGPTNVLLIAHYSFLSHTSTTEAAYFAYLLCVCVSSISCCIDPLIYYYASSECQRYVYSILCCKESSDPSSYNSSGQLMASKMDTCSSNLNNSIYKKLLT

For `COc1c(N2CCOCC2)cc(C(=O)C[n+]2nc(N)n3cc(C(F)(F)F)ccc32)cc1C(C)(C)C` [Example 4, 3-Amino-1-[2-(3-tert-butyl-4-methoxy-5-morpholin-4-ylphenyl)-2-oxoethyl]-6-trifluoromethyl-[1,2,4]triazolo[4,3-a]pyridin-1-ium trifluoroacetate], on PAR1 [1], it took 126 nM to reach half-maximal inhibition (IC50).

As to `CCC(CC)Oc1ccc2n(n1)c(N)n[n+]2CC(=O)c1cc(OCC2CC2)cc(C(C)(C)C)c1` [Example 35, 3-Amino-1-[2-(3-tert-butyl-5-cyclopropylmethoxyphen-yl)-2-oxoethyl]-6-(1-ethylpropoxy)-[1,2,4]triazolo[4,3-b]pyridazin-1-ium chloride], the IC50 at PAR1 [2] turned out to be 132 nM.

On to `CCC(CC)Oc1ccc2n(n1)c(N)n[n+]2CC(=O)c1cc(OC)cc(OCC2CCCCC2)c1` [Example 47, 3-Amino-1-[2-(3-cyclohexylmethoxy-5-methoxyphenyl)-2-oxoethyl]-6-(1-ethylpropoxy)-[1,2,4]triazolo[4,3-b]pyridazin-1-ium chloride], for which, on PAR1 [2], the IC50 turned out to be 10000 nM.

At PAR1 [1], `CC(C)(C)c1cc(C(=O)C[n+]2nc(N)n3ccccc32)cc(C(C)(C)C)c1O` [Example 3, 3-Amino-1-[2-(3,5-di-tert-butyl-4-hydroxyphenyl)-2-oxoethyl]-[1,2,4]triazolo[4,3-a]pyridin-1-ium trifluoroacetate] returned an IC50 of 1080 nM.

In the case of `CCOCc1cc(C(=O)C[n+]2nc(N)n3nc(OC(CC)CC)ccc32)cc(C(C)(C)C)c1` [Example 27, 3-Amino-1-[2-(3-tert-butyl-5-ethoxymethylphenyl)-2-oxoethyl]-6-(1-ethylpropoxy)-[1,2,4]triazolo[4,3-b]pyridazin-1-ium chloride], the 50% inhibitory concentration (IC50) on PAR1 [2] was 152 nM.

Consider `CCC(CC)Oc1ccc2n(n1)c(N)n[n+]2CC(=O)c1cc(Cl)cc(OC)c1` [Example 40, 3-Amino-1-[2-(3-chloro-5-methoxyphenyl)-2-oxoethyl]-6-(1-ethylpropoxy)-[1,2,4]triazolo[4,3-b]pyridazin-1-ium chloride], for which the IC50 at PAR1 [2] was determined as 601 nM.

Turning to `CCOc1ccc2n(n1)c(N)n[n+]2CC(=O)c1cc(NC(C)=O)cc(S(F)(F)(F)(F)F)c1` [Example 1, 1-{2-[3-Acetylamino-5-(pentafluorosulfanyl)phenyl]-2-oxoethyl}-3-amino-6-ethoxy-[1,2,4]triazolo[4,3-b]pyridazin-1-ium trifluoroacetate], at PAR1 [1], the 50% inhibitory concentration (IC50) was below 14 nM.

Compound `CCC(CC)Oc1ccc2n(n1)c(N)n[n+]2CC(=O)c1cc(OC)cc(S(F)(F)(F)(F)F)c1` [Example 26, 3-Amino-6-(1-ethylpropoxy)-1-{2-[3-methoxy-5-(pentafluorosulfanyl)phe-nyl]-2-oxoethyl}-[1,2,4]triazolo[4,3-b]pyridazin-1-ium trifluoroacetate] displayed a 50% inhibitory concentration (IC50) against PAR1 [1] of 5 nM.

Turning to `CCc1ccc2n(n1)c(N)n[n+]2CC(=O)c1cc(N2CCOCC2)c(OC)c(C(C)(C)C)c1` [Example 60, 3-Amino-1-[2-(3-tert-butyl-4-methoxy-5-morpholin-4-ylphenyl)-2-oxoethyl]-6-ethyl-[1,2,4]triazolo[4,3-b]pyridazin-1-ium trifluoroacetate], the IC50 at PAR1 [2] stood at 2100 nM.

Compound `CCOC(=O)c1cn2c(N)n[n+](CC(=O)c3cc(N4CCOCC4)c(OC)c(C(C)(C)C)c3)c2cc1OCC` [Example 8, 3-Amino-1-[2-(3-tert-butyl-4-methoxy-5-morpholin-4-yl-phenyl)-2-oxoethyl]-7-ethoxy-6-ethoxycarbonyl-[1,2,4]triazolo[4,3-a]pyridin-1-ium trifluoroacetate] had an IC50 on PAR1 [1] of 4400 nM.

As for `CCC(CC)Oc1nn2c(N)n[n+](CC(=O)c3cc(N4CCOCC4)c(OC)c(C(C)(C)C)c3)c2cc1C1CC1` [Example 76, 3-Amino-1-[2-(3-tert-butyl-4-methoxy-5-morpholin-4-ylphenyl)-2-oxoethyl]-7-cyclopropyl-6-(1-ethylpropoxy)-[1,2,4]triazolo[4,3-b]pyridazin-1-ium chloride], on PAR1 [2], the IC50 turned out to be 1400 nM.

Take `CCOc1cc(C(=O)C[n+]2nc(N)n3nc(OC(CC)CC)ccc32)cc(C(C)(C)C)c1OCC` [Example 29, 3-Amino-1-[2-(3-tert-butyl-4,5-diethoxyphenyl)-2-oxoethyl]-6-(1-ethylpropoxy)-[1,2,4]triazolo[4,3-b]pyridazin-1-ium chloride]: the IC50 at PAR1 [2] worked out at 136 nM.

As to `CCOc1cc(C(=O)C[n+]2nc(N)n3nc(OC(CC)CC)ccc32)cc(C(C)(C)C)c1` [Example 32, 3-Amino-1-[2-(3-tert-butyl-5-ethoxyphenyl)-2-oxoethyl]-6-(1-ethylpropoxy)-[1,2,4]triazolo[4,3-b]pyridazin-1-ium chloride], at PAR1 [1], it took 6 nM to reach half-maximal inhibition (IC50).

`CCC(CC)Oc1ccc2n(n1)c(N)n[n+]2CC(=O)c1cc(OC)c(OC)c(OCC2CCCCC2)c1` [Example 38, 3-Amino-1-[2-(3-cyclohexylmethoxy-4,5-dimethoxyphenyl)-2-oxoethyl]-6-(1-ethylpropoxy)-[1,2,4]triazolo[4,3-b]pyridazin-1-ium chloride] came in with an IC50 on PAR1 [1] of 240 nM.

Take `CCCCOc1ccc2n(n1)c(N)n[n+]2CC(=O)c1cc(COC)cc(C(C)(C)C)c1` [Example 39, 3-Amino-6-butoxy-1-[2-(3-tert-butyl-5-methoxymethylphenyl)-2-oxoethyl]-[1,2,4]triazolo[4,3-b]pyridazin-1-ium chloride]: at PAR1 [1], the IC50 is 37 nM.

As to `CCC(CC)Oc1ccc2n(n1)c(N)n[n+]2CC(=O)c1cc(OC)cc(C(C)C)c1` [Example 46, 3-Amino-6-(1-ethylpropoxy)-1-]2-(3-isopropyl-5-methoxyphenyl)-2-oxoethyl]-[1,2,4]triazolo[4,3-b]pyridazin-1-ium chloride], the IC50 at PAR1 [2] was found to be 114 nM.

For `CCOc1nn2c(NC)n[n+](CC(=O)c3cc(N4CCOCC4)c(OC)c(C(C)(C)C)c3)c2c(C)c1C` [Example 72, 1-[2-(3-tert-Butyl-4-methoxy-5-morpholin-4-ylphenyl)-2-oxoethyl]-6-ethoxy-7,8-dimethyl-3-methylamino-[1,2,4]triazolo[4,3-b]pyridazin-1-ium trifluoroacetate], the IC50 on PAR1 [2] came out at 1700 nM.

Consider `CCOc1nn2c(N)n[n+](CC(=O)c3cc(OCCCO)c(OC)c(C(C)(C)C)c3)c2cc1CC` [Example 82, 3-Amino-1-{2-[3-tert-butyl-5-(3-hydroxypropoxy)-4-methoxyphenyl]-2-oxoethyl}-6-ethoxy-7-ethyl-[1,2,4]triazolo[4,3-b]pyridazin-1-ium chloride], for which the IC50 at PAR1 [2] was 8400 nM.

For `CCC(CC)Oc1ccc2n(n1)c(N)n[n+]2CC(=O)c1cc(OCCOC)cc(C(C)(C)C)c1` [Example 54, 3-Amino-1-{2-[3-tert-butyl-5-(2-methoxyethoxy)phenyl]-2-oxoethyl}-6-(1-ethylpropoxy)-[1,2,4]triazolo[4,3-b]pyridazin-1-ium chloride], the IC50 at PAR1 [2] was 85 nM.

Source of the values: patent US8853206B2, “Triazolium salts as PAR1 inhibitors, production thereof, and use as medicaments” (Sanofi, priority 2008, dated 2014).
